Measurements: patent US20230330254A1 (Regeneron Pharmaceuticals, Inc., priority 2022, published 2023)
pEC50: −log10 of the molar value. Like-named read-outs stand apart in the source and are kept apart here. Where a SMILES comes first, the peptide text is derived from it. [ ]: non-standard residue; d: D form. The star is where a group is joined. Bip(2'-Et,4'-O(CH2)4NH2) = CCc1cc(OCCCCN)ccc1-c1ccc(C[C@H](N)C(=O)O)cc1; Malonyl(2,2-Me2,histaminyl) = CC(C)(C(=O)NCCc1cnc[nH]1)C(=O)*; Nva(5-(3,5-Me2Ph)) = Cc1cc(C)cc(CCC[C@H](N)C(=O)O)c1; Ala(1H-tetrazol-5-yl) = N[C@@H](Cc1nnn[nH]1)C(=O)O; αMePhe(2-F) = C[C@](N)(Cc1ccccc1F)C(=O)O

Legend:
human GLP1R [1] = biological target: T1, human GLP1R (Homo sapiens, UniProt P43220); test: b-arrestin 2 recruitment assay, PathHunter CHO/b-arrestin 2/hGLP1R cells; format: cell-based; settings: read-out: CHO/b-arrestin 2/hGLP1R Emax (% GLP-1)
Procedure: The b-arrestin 2 recruitment assay was performed following manufacter's instructions (Eurofins DiscoverX, #93-0300E2CP0M), with minor modifications. […] Serial dilutions of free payload and LP were performed in 100% DMSO, followed by 1:100 dilution in assay media. Test articles were added to cells (1:5 dilution) with the last well in each serial dilution series serving as a blank control containing only assay media for antibodies and ATLs or assay media with 0.2% DMSO for payload and LP. After a 90-minute incubation at 37° C., PathHunter Detection Reagent (Eurofins DiscoverX, #93-0300E2CP0M) was added to the wells followed by a 1-hour incubation at room temperature. RLUs were measured on EnVision Plate Reader (Perkin Elmer).
(§1) EC50 values for luminescence assays were determined using a four-parameter logistic equation over a 12-point dose response curve (GraphPad Prism).

human GLP1R [2] = biological target: T1, human GLP1R; test: CRE-Luc cAMP reporter assay, HEK293/CRE-Luc/hGLP1R (Example 24); format: cell-based; set-up: engineered to express full-length human GLP1R, cynomolgus GLP1R; expressed in transfected cells; host or cells: HEK293/CRE-Luc
Description: To test the activity of GLP1R agonist payloads, GLP1R agonist linker-payloads (LPs), and anti-GLP1R antibody-tethered ligands (ATLs) of the invention, a cell-based cAMP responsive luciferase reporter assay was developed. To generate the assay cell line, the firefly luciferase gene was placed under the control of a cAMP response element (CRE) located upstream of a minimal promoter and transfected into HEK293 cells and referred to herein as HEK293/CRE-Luc cells. HEK293/CRE-Luc cells were then engineered to express full-length human GLP1R (HEK293/CRE-Luc/hGLP1R), cynomolgus GLP1R (HEK293/CRE-Luc/mfGLP1R), or mouse GLP1R (HEK293/CRE-Luc/mGLP1R).
Serial dilutions of free payload and linker payloads (LP) were performed in 100% DMSO (ATCC, #4-X-5), followed by 1:100 dilution in assay media. Test articles were added to cells (1:5 dilution) with the last well in each serial dilution series serving as a blank control containing only assay media for antibodies and ATLs or assay media with 0.2% DMSO for payloads and LPs. After a 5-hour incubation at 37° C., luciferase activity was determined by addition of ONE-Glo reagent (Promega, #E6130) followed by measurement of relative light units (RLUs) on an EnVision Plate Reader (Perkin Elmer).
as §1

[3] = Plasma stability of payloads and linker-payloads, mouse plasma; format: in vitro ADME; settings: mouse, pooled plasma
Procedure: The plasma stability of payloads and linker payloads of the disclosure were measured. For the assay, pooled frozen plasma (human, mouse or monkey) was thawed in cold water or a 37° C. water bath prior to experiment. Plasma was centrifuged at 4000 rpm for 5 min if any clots were observed, they were subsequently removed. If required, the pH was adjusted to 7.4±0.1. For the preparation of compounds and positive controls, a 1 mM intermediate solution was prepared by diluting 10 μL of their stock solution with 90 μL DMSO; a 1 mM intermediate solution of the positive control (Propantheline) was prepared by diluting 10 μL of its stock solution with 90 μL ultrapure water. Subsequently, 100 μM dosing solution for each compound was prepared by diluting 20 μL of the intermediate solution (1 mM) with 180 μL 45% MeOH/H2O. 98 μL of plasma was spiked with 2 μL of dosing solution (100 μM) to achieve the final concentration of 2 μM in duplicate. Samples were then incubated at 37° C. in a water bath. […] At each time point, 400 μL of stop solution (200 ng/mL tolbutamide plus 200 ng/mL labetalol in 50% ACN/MeOH) was added to precipitate protein and mixed thoroughly. Sample plates were then centrifuged at 4,000 rpm for 10 min. An aliquot of supernatant (50 μL) was transferred from each well and mixed with 100 μL ultrapure water. The samples were then shaken at 800 rpm for approximately 10 min before submitting for LC-MS/MS analysis.

[4] = system: Salmonella typhimurium TA98 and TA100; test: Mini-Ames assay; format: cell-based
Procedure: The objective of this Mini-Ames study was to evaluate the test article LP11, for its ability to induce reverse mutations in the genome of strains of Salmonella typhimurium TA98 and TA100 in the presence and absence of metabolic activation (S9 mixture).
The Mini-Ames assay was conducted for the test article in the presence and absence of the S9 mixture, concurrently with the negative/solvent control (DMSO) using six wells and positive controls (2 μg/well TA98 alone, 0.2 μg/well TA100 alone or 0.4 μg/well TA98+TA100 in the presence of S9) using three wells. The tested dose levels for the test article, in the presence and absence of S9 mix, were 1000, 400, 160, 64, 25, 10, 4, and 1.5 μg per well, with each dose tested in triplicate. The study was conducted using fresh cultures of the bacterial strains and fresh test article formulations.

[5] = Plasma stability of payloads (t½)

T1 sequence (P43220 24-463): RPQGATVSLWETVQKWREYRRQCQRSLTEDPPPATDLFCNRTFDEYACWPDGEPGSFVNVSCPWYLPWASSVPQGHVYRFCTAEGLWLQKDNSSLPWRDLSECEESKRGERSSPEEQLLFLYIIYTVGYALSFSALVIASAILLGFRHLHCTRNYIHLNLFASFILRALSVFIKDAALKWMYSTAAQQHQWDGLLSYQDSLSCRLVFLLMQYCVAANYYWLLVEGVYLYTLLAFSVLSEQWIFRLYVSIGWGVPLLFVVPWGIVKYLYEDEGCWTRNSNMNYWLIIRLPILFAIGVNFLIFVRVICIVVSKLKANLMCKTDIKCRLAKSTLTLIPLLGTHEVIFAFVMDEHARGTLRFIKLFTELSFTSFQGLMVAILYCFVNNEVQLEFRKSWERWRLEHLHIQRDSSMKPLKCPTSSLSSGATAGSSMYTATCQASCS

For CCc1cc(OCCCCn2cc(COCCOCCOCCOCCOCCOCCOCCOCCN)nn2)ccc1-c1ccc(C[C@H](NC(=O)[C@H](CC(=O)O)NC(=O)[C@H](CO)NC(=O)[C@@H](NC(=O)[C@](C)(Cc2ccccc2F)NC(=O)[C@@H](NC(=O)CNC(=O)[C@H](Cc2nn[nH]n2)NC(=O)C(C)(C)C(=O)NCCc2cnc[nH]2)[C@@H](C)O)[C@@H](C)O)C(=O)N[C@@H](CCCc2cc(C)cc(C)c2)C(N)=O)cc1 [M3190], the Emax (human GLP1R [1]) was 108%, the Emax (human GLP1R [2]; HEK293, read-out: HEK293/CRE-Luc/hGLP1R Emax (% GLP-1)) was 93.9% and the pEC50 (human GLP1R [2]; Table 40, CRE-dependent reporter activity, no unit printed in table (text b1912 reads values as M)) was 10.77.
CCc1cc(OCCCCn2cc(COCCOCCOCCOCCOCCOCCOCCOCCN)nn2)ccc1-c1ccc(C[C@H](NC(=O)[C@H](CC(=O)O)NC(=O)[C@H](CO)NC(=O)[C@@H](NC(=O)C(C)(Cc2ccccc2F)NC(=O)[C@@H](NC(=O)CNC(=O)[C@H](Cc2nn[nH]n2)NC(=O)C(C)(C)C(=O)NCCc2cnc[nH]2)[C@@H](C)O)[C@@H](C)O)C(=O)N[C@@H](CCCc2cc(C)cc(C)c2)C(N)=O)cc1 (stereo partly drawn) [LP11, NH2-PEG8-triazole-P8] showed a half-life at 2 µM ([3]; pH 7.4, Mouse, assay time 3 days, Table 5B, read-out: plasma stability T½) of over 144 h, a half-life at 2 µM ([3]; pH 7.4, Table 5A, mouse plasma, tested time C (3 days), read-out: plasma stability T½ (hr), mouse) of over 173 h and a half-life at 2 µM ([3]; pH 7.4, Table 5C, read-out: Plasma Stability Mouse T½) of over 168 h. For the same compound, the “fold increase in mean number of revertant colonies vs negative/solvent control” value [4] was at most 2.0 fold, the “mutagenicity (Mini-Ames conclusion)” value ([4]; TA98 and TA100, with and without S9) was “negative for mutagenicity” and the “Ames (TA98 and TA100) in the presence and absence of S9” value ([4]; Table 5C) was “Negative for mutagenicity”. The “cytotoxicity in Mini-Ames” value ([4]; any dose level (1.5-1000 μg per well), with or without S9 mix) was “no obvious cytotoxicity” and the “precipitates in Mini-Ames (naked eye after incubation)” value ([4]; any dose level, with or without S9 mix) was “No obvious precipitates”.
With CCc1cc(OCCCCN)ccc1-c1ccc(C[C@H](NC(=O)[C@H](CC(=O)O)NC(=O)[C@H](CO)NC(=O)[C@@H](NC(=O)[C@](C)(Cc2ccccc2F)NC(=O)[C@@H](NC(=O)CNC(=O)[C@H](Cc2nn[nH]n2)NC(=O)C(C)(C)C(=O)NCCc2cnc[nH]2)[C@@H](C)O)[C@@H](C)O)C(=O)N[C@@H](CCCc2cc(C)cc(C)c2)C(N)=O)cc1 [P9, (8S,14S,17S,20S,23S,26S)-8-((2H-tetrazol-5-yl)methyl)-26-(((S)-1-(((S)-1-amino-5-(3,5-dimethylphenyl)-1-oxopentan-2-yl)amino)-3-(4′-(4-aminobutoxy)-2′-ethyl-[1,1′-biphenyl]-4-yl)-1-oxopropan-2-yl)carbamoyl)-17-(2-fluorobenzyl)-14,20-bis((R)-1-hydroxyethyl)-23-(hydroxymethyl)-1-(1H-imidazol-5-yl)-5,5,17-trimethyl-4,6,9,12,15,18,21,24-octaoxo-3,7,10,13,16,19,22,25-octaazaoctacosan-28-oic acid] ({Malonyl(2,2-Me2,histaminyl)}-[Ala(1H-tetrazol-5-yl)]GT[αMePhe(2-F)]TSD[Bip(2'-Et,4'-O(CH2)4NH2)][Nva(5-(3,5-Me2Ph))]-NH2) the “Plasma stability t½” value [5] was over 57.8 h.
